{"source": "patent US20240150342A1", "about": "“ESTROGEN-RELATED RECEPTOR ALPHA MODULATORS” (LEAD PHARMA HOLDING B.V., priority 2019, published 2024)", "data": [{"biological_target": "T1, ERRα ligand binding domain (ERRα-LBD) (Homo sapiens, UniProt P11474)", "T1 construct": "made in house; host or cells: E. coli", "T1 sequence (P11474 193-421 limits assumed)": "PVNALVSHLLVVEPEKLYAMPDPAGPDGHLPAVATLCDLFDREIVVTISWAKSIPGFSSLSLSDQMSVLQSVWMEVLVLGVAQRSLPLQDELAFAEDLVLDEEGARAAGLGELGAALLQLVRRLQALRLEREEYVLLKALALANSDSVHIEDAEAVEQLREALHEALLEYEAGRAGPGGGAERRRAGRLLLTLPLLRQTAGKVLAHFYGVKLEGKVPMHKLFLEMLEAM", "assay": "ERRα AlphaScreen Assay", "format": "biochemical", "conditions": "disruption of binding of ERRα-LBD protein to biotin-PGC1α-3 co-activator peptide; read-out: mean pIC50 (converted)", "description": "This assay was based on the knowledge that nuclear receptors interact with cofactors in a ligand dependent matter. The sites of interaction have been mapped to LXXLL motifs that are present in the co-activator sequences. Short peptide sequences that contain the LXXLL motif mimic the behavior of full length co-activators.\nThe ERRα AlphaScreen Assay described here relies on the interaction of the co-activator peptide with purified bacterial- expressed ERRα ligand binding domain (ERRα-LBD); upon ligand binding, the ERRα protein can undergo a conformational change resulting in a loss of co-activator binding.\nCompounds of the present invention were tested for their ability to disrupt binding of ERRα-LBD protein to co-activator peptide using AlphaScreen® Technology (Perkin Elmer). ERRα-LBD protein was expressed in E. coli as a 6×His Small Ubiquitin-like Modifier (SUMO) fusion. Bacterial expressed 6His-SUMO-ERRα-LBD protein was purified using affinity chromatography. All experiments were performed at room temperature in 384-well white non-binding plates (Greiner) using 50 mM Tris-HCl pH 7.5, 100 mM NaCl, 0.1% Pluronic F-127, 0.05% BSA and 5 mM TCEP as the buffer. Final DMSO concentration was 1% in the assay. Compounds were assayed in triplicate and: incubated with 0.81 nM ERRα-LBD protein and 10 μg/mL streptavidin donor beads and 10 μg/mL Ni-chelate acceptor beads for 1 hour at room temperature; followed by a 2-hour incubation with 15 nM biotin-PGC1α-3 peptide (QRRPCSELLKYLTTNDDPP) corresponding to amino acids 202 to 220.\nThe AlphaScreen signal was measured using an Envision Xcite plate reader (Perkin Elmer). Data was normalized, and curve fitting analysis was performed in GraphPad Prism 7 using a four-parameter dose-response fit.", "units": {"IC50": "nM"}, "values": [{"smiles": "COc1cc(C2CC(=O)Nc3n[nH]cc32)ccc1Oc1cc(C(F)(F)F)cc(C(F)(F)F)c1", "note": "(single isomer, unassigned; (+)) [Example 79, (+)-4-{4-[3,5-bis(trifluoromethyl)phenoxy]-3-methoxyphenyl}-2H,4H,5H,6H,7H-pyrazolo[3,4-b]pyridin-6-one]", "IC50": "100 to 1000"}, {"smiles": "COc1cc(C2CC(=O)Nc3n[nH]cc32)ccc1Oc1cc(C)cc(C)c1", "note": "(single isomer, unassigned; (+)) [Example 81, (+)-4-[4-(3,5-dimethylphenoxy)-3-methoxyphenyl]-2H,4H,5H,6H,7H-pyrazolo[3,4-b]pyridin-6-one]", "IC50": "100 to 1000"}, {"smiles": "COc1cc(C2CC(=O)Nc3n[nH]cc32)ccc1Oc1cc(C)cc(C(F)(F)F)c1", "note": "(single isomer, unassigned; (+)) [Example 83, (+)-4-{3-methoxy-4-[3-methyl-5-(trifluoromethyl)phenoxy]phenyl}-2H,4H,5H,6H,7H-pyrazolo[3,4-b]pyridin-6-one]", "IC50": "100 to 1000"}, {"smiles": "COc1cc(C2CC(=O)Nc3n[nH]cc32)ccc1Oc1cc(C(F)F)cc(C(F)(F)F)c1", "note": "(single isomer, unassigned; (+)) [Example 85, (+)-4-{4-[3-(difluoromethyl)-5-(trifluoromethyl)phenoxy]-3-methoxyphenyl}-2H,4H,5H,6H,7H-pyrazolo[3,4-b]pyridin-6-one]", "IC50": "100 to 1000"}, {"smiles": "COc1cc(C2CC(=O)Nc3n[nH]cc32)ccc1Oc1cc(C)cc(C)c1", "note": "(single isomer, unassigned; (-)) [Example 82, (−)-4-[4-(3,5-dimethylphenoxy)-3-methoxyphenyl]-2H,4H,5H,6H,7H-pyrazolo[3,4-b]pyridin-6-one]", "IC50": "10 to 100"}, {"smiles": "COc1cc(C2CC(=O)Nc3n[nH]cc32)ccc1Oc1cccc(C)c1", "note": "(centres unmarked) [Example 1, 4-[3-methoxy-4-(3-methylphenoxy)phenyl]-2H,4H,5H,6H, 7H-pyrazolo[3,4-b]pyridin-6-one]", "IC50": "100 to 1000"}, {"smiles": "COc1cc(C2CC(=O)Nc3n[nH]cc32)ccc1Oc1ccc(C#N)cc1C(F)(F)F", "note": "(centres unmarked) [Example 2, 4-(2-methoxy-4-{6-oxo-2H,4H,5H,6H,7H-pyrazolo[3,4-b]pyridin-4-yl}phenoxy)-3-(trifluoromethyl)benzonitrile]", "IC50": "100 to 1000"}, {"smiles": "COc1cc(C2CC(=O)Nc3n[nH]cc32)ccc1Oc1ccccc1C(F)(F)F", "note": "(centres unmarked) [Example 4, 4-{3-methoxy-4-[2-(trifluoromethyl)phenoxy]phenyl}-2H,4H,5H,6H,7H-pyrazolo[3,4-b]pyridin-6-one]", "IC50": "100 to 1000"}, {"smiles": "COc1cc(C2CC(=O)Nc3n[nH]cc32)ccc1Oc1ccc(C(F)(F)F)cc1", "note": "(centres unmarked) [Example 5, 4-{3-methoxy-4-[4-(trifluoromethyl)phenoxy]phenyl}-2H,4H,5H,6H,7H-pyrazolo[3,4-b]pyridin-6-one]", "IC50": "100 to 1000"}, {"smiles": "COc1cc(C2CC(=O)Nc3n[nH]cc32)ccc1Oc1cccc(C(F)(F)F)c1", "note": "(centres unmarked) [Example 6, 4-{3-methoxy-4-[3-(trifluoromethyl)phenoxy]phenyl}-2H,4H,5H,6H,7H-pyrazolo[3,4-b]pyridin-6-one]", "IC50": "100 to 1000"}, {"smiles": "COc1cc(C2CC(=O)Nc3n[nH]cc32)ccc1Oc1ccccc1Br", "note": "(centres unmarked) [Example 7, 4-[4-(2-bromophenoxy)-3-methoxyphenyl]-2H,4H,5H,6H,7H-pyrazolo[3,4-b]pyridin-6-one]", "IC50": "100 to 1000"}, {"smiles": "COc1cc(C2CC(=O)Nc3n[nH]cc32)ccc1Oc1ccccc1OC(F)(F)F", "note": "(centres unmarked) [Example 12, 4-{3-methoxy-4-[2-(trifluoromethoxy)phenoxy]phenyl}-2H,4H,5H,6H,7H-pyrazolo[3,4-b]pyridin-6-one]", "IC50": "10 to 100"}, {"smiles": "COc1cc(C2CC(=O)Nc3n[nH]cc32)ccc1Oc1cccc(Br)c1", "note": "(centres unmarked) [Example 14, 4-[4-(3-bromophenoxy)-3-methoxyphenyl]-2H,4H,5H,6H,7H-pyrazolo[3,4-b]pyridin-6-one]", "IC50": "100 to 1000"}, {"smiles": "COc1cc(C2CC(=O)Nc3n[nH]cc32)ccc1Oc1cccc(C(C)(C)C)c1", "note": "(centres unmarked) [Example 15, 4-[4-(3-tert-butylphenoxy)-3-methoxyphenyl]-2H,4H,5H,6H,7H-pyrazolo[3,4-b]pyridin-6-one]", "IC50": "10 to 100"}, {"smiles": "COc1cc(C2CC(=O)Nc3n[nH]cc32)ccc1Oc1cccc(OC(F)(F)F)c1", "note": "(centres unmarked) [Example 17, 4-{3-methoxy-4-[3-(trifluoromethoxy)phenoxy]phenyl}-2H,4H,5H,6H,7H-pyrazolo[3,4-b]pyridin-6-one]", "IC50": "100 to 1000"}, {"smiles": "CCc1ccccc1Oc1ccc(C2CC(=O)Nc3n[nH]cc32)cc1OC", "note": "(centres unmarked) [Example 20, 4-[4-(2-ethylphenoxy)-3-methoxyphenyl]-2H,4H,5H,6H,7H-pyrazolo[3,4-b]pyridin-6-one]", "IC50": "100 to 1000"}, {"smiles": "CCc1cccc(Oc2ccc(C3CC(=O)Nc4n[nH]cc43)cc2OC)c1", "note": "(centres unmarked) [Example 21, 4-[4-(3-ethylphenoxy)-3-methoxyphenyl]-2H,4H,5H,6H,7H-pyrazolo[3,4-b]pyridin-6-one]", "IC50": "100 to 1000"}, {"smiles": "CCCc1ccccc1Oc1ccc(C2CC(=O)Nc3n[nH]cc32)cc1OC", "note": "(centres unmarked) [Example 22, 4-[3-methoxy-4-(2-propylphenoxy)phenyl]-2H,4H,5H,6H,7H-pyrazolo[3,4-b]pyridin-6-one]", "IC50": "100 to 1000"}, {"smiles": "COc1cc(C2CC(=O)Nc3n[nH]cc32)ccc1Oc1ccccc1C(C)C", "note": "(centres unmarked) [Example 23, 4-{3-methoxy-4-[2-(propan-2-yl)phenoxy]phenyl}-2H,4H,5H,6H,7H-pyrazolo[3,4-b]pyridin-6-one]", "IC50": "10 to 100"}, {"smiles": "COc1cc(C2CC(=O)Nc3n[nH]cc32)ccc1Oc1ccccc1-c1ccccc1", "note": "(centres unmarked) [Example 24, 4-[3-methoxy-4-(2-phenylphenoxy)phenyl]-2H,4H,5H,6H,7H-pyrazolo[3,4-b]pyridin-6-one]", "IC50": "100 to 1000"}, {"smiles": "COc1cc(C2CC(=O)Nc3n[nH]cc32)ccc1Oc1ccccc1C1CCCC1", "note": "(centres unmarked) [Example 25, 4-[4-(2-cyclopentylphenoxy)-3-methoxyphenyl]-2H,4H,5H,6H,7H-pyrazolo[3,4-b]pyridin-6-one]", "IC50": "100 to 1000"}, {"smiles": "COc1cc(C2CC(=O)Nc3n[nH]cc32)ccc1Oc1ccccc1Cc1ccccc1", "note": "(centres unmarked) [Example 26, 4-[4-(2-benzylphenoxy)-3-methoxyphenyl]-2H,4H,5H,6H,7H-pyrazolo[3,4-b]pyridin-6-one]", "IC50": "100 to 1000"}, {"smiles": "COc1ccc(Oc2ccc(C3CC(=O)Nc4n[nH]cc43)cc2OC)c(C(C)(C)C)c1", "note": "(centres unmarked) [Example 27, 4-[4-(2-tert-butyl-4-methoxyphenoxy)-3-methoxyphenyl]-2H,4H,5H,6H,7H-pyrazolo[3,4-b]pyridin-6-one]", "IC50": "≤ 10"}, {"smiles": "COc1cc(C2CC(=O)Nc3n[nH]cc32)ccc1Oc1ccccc1C1CC1", "note": "(centres unmarked) [Example 28, 4-[4-(2-cyclopropylphenoxy)-3-methoxyphenyl]-2H,4H,5H,6H,7H-pyrazolo[3,4-b]pyridin-6-one]", "IC50": "10 to 100"}, {"smiles": "COc1cc(C2CC(=O)Nc3n[nH]cc32)ccc1Oc1cccc(C(C)C)c1", "note": "(centres unmarked) [Example 30, 4-{3-methoxy-4-[3-(propan-2-yl)phenoxy]phenyl}-2H,4H,5H,6H,7H-pyrazolo[3,4-b]pyridin-6-one]", "IC50": "10 to 100"}, {"smiles": "COc1cc(C2CC(=O)Nc3n[nH]cc32)ccc1Oc1cccc(C2CC2)c1", "note": "(centres unmarked) [Example 31, 4-[4-(3-cyclopropylphenoxy)-3-methoxyphenyl]-2H,4H,5H,6H,7H-pyrazolo[3,4-b]pyridin-6-one]", "IC50": "10 to 100"}, {"smiles": "COC(=O)c1ccc(Oc2ccc(C3CC(=O)Nc4n[nH]cc43)cc2OC)c2ccccc12", "note": "(centres unmarked) [Example 36, methyl 4-(2-methoxy-4-{6-oxo-2H,4H,5H,6H,7H-pyrazolo[3,4-b]pyridin-4-yl}phenoxy)naphthalene-1-carboxylate]", "IC50": "≤ 10"}, {"smiles": "COc1cc(C2CC(=O)Nc3n[nH]cc32)ccc1Oc1cc(Br)cc(C(F)(F)F)c1", "note": "(centres unmarked) [Example 42, 4-{4-[3-bromo-5-(trifluoromethyl)phenoxy]-3-methoxyphenyl}-2H,4H,5H,6H,7H-pyrazolo[3,4-b]pyridin-6-one]", "IC50": "10 to 100"}, {"smiles": "COc1cc(C2CC(=O)Nc3n[nH]cc32)ccc1Oc1cc(C(C)(C)C)cc(C(C)(C)C)c1", "note": "(centres unmarked) [Example 44, 4-[4-(3,5-di-tert-butylphenoxy)-3-methoxyphenyl]-2H,4H,5H,6H,7H-pyrazolo[3,4-b]pyridin-6-one]", "IC50": "10 to 100"}, {"smiles": "COc1cc(C2CC(=O)Nc3n[nH]cc32)ccc1Oc1ccccc1C12CC(C1)C2", "note": "(centres unmarked) [Example 45, 4-[4-(2-{bicyclo[1.1.1]pentan-1-yl}phenoxy)-3-methoxyphenyl]-2H,4H,5H,6H,7H-pyrazolo[3,4-b]pyridin-6-one]", "IC50": "10 to 100"}, {"smiles": "COc1cc(C2CC(=O)Nc3n[nH]cc32)ccc1Oc1ccc(C#N)c2ccccc12", "note": "(centres unmarked) [Example 46, 4-(2-methoxy-4-{6-oxo-2H,4H,5H,6H,7H-pyrazolo[3,4-b]pyridin-4-yl}phenoxy)naphthalene-1-carbonitrile]", "IC50": "10 to 100"}, {"smiles": "COc1cc(C2CC(=O)Nc3n[nH]cc32)ccc1Oc1cccc2c1CCC2", "note": "(centres unmarked) [Example 47, 4-[4-(2,3-dihydro-1H-inden-4-yloxy)-3-methoxyphenyl]-2H,4H,5H,6H,7H-pyrazolo[3,4-b]pyridin-6-one]", "IC50": "10 to 100"}]}]}
